The values below are quoted from earlier work in US20260374745A1, “METHODS FOR PRODUCING AROMATIC THIAZINES OR SELENAZINES” (Universität Heidelberg, priority 2023, published 2026).

The subject of one series is HIV. Conditions: Mizuhara et al., Org. Biomol. Chem. 2012, 10, 6792-6802.
Series [1] relates to 3-deoxy-d-manno-octulosonic acid 8-phosphate (KDO 8-P) synthase. The following applies: role: inhibitor; Birck et al., J. Am. Chem. Soc. 2000, 122, 9334-9335.

Turning to `N=C1Sc2ccccc2C2=NCCCN12` [PD 404182], the anti-HIV activities entry in the series on HIV is recorded as “potent”. In series [1], the “3-deoxy-d-manno-octulosonic acid 8-phosphate (KDO 8-P) synthase inhibitor” value is given as “inhibitor”.
